According to patent US5214034A, “Catechol derivatives, and preventive and remedial preparations for regressive disorders in the central nervous system containing the same” (priority 1986, dated 1993):

Key:
[1] = system: rats injected with kainic acid at basal forebrain; assay: Promotion of recovery from retention deficits by repeated learning (passive avoidance); assay type: in vivo, rat (male Sprague-Dawley); parameters: key: latency in seconds to enter dark chamber, capped at 300 s; conditions: Table 9, i.p. 5 mg/kg before each trial
Method: (§1) Effects of the derivative on the behavioral parameters of rats injected with kainic acid at basal forebrain were characterized with regard to both prevention against deficits in retention of passive avoidance learning and promotion of recovery from damaged state by repeated learning.
(§2) Male Sprague-Dawley rats (9-10 weeks of age, 200-250 g of weight) were anesthetized with Nembutal (50 mg/kg, i.p.) and placed in a stereotaxic apparatus. Bilateral lesions of the ventral globus pallidus were made by direct stereotaxic application (0.7 mm posterior to bregma, 2.7 mm lateral to the midline, and 7.0 mm ventral to the brain surface) of 0.25 μg of kainic acid in 1 μl of PBS (pH 7.4) to prepare disordered models. Controls were sham-operated rats injected with PBS in place of kainic acid solution.
(§3) Passive avoidance procedures were performed by using a two chambered step-through passive avoidance apparatus with a guillotine door. A 3 mA scrambled shock was delivered to the dark floor grids for 3 seconds as a punishment. Habituation trial was conducted prior to the acquisition trial. Each rats were placed in the illuminated chamber and the guillotine door was raised after 10 seconds. As soon as the rats entered into the dark chamber, the door was lowered. The rats were removed after 10 seconds and returned to their home cages. […] The acquisition trial was performed similarly to the habituation trial. In the former case, a rat was placed in the illuminated room and the door was opened after 10 seconds. The door was shut immediately after the rat entered into the dark room, a scrambled foot shock was applied, and then the animal was removed. The latency to enter the dark chamber after opening the door was recorded for 300 seconds in the retention of passive avoidance. The latency exceeding 300 seconds was calculated as 300 seconds.
The promoting effects on the recovery by repeated training from the damaged state of retention were acessed by using 30 rats injected with kainic acid. Rats were subjected to the acquisition trial 10 days after the operation. The rats were equally divided into 3 groups after 24 hours and injected intrapenitroneally with 5 mg/kg of 4-n-propylcatechol and the derivative (A) (R=--CO--, R=H, R2 =n-propyl) respectively as a saline solution. The remaining 10 rats were intraperitoneally injected with saline alone. The first retention trial was carried out two days after the injection. Rats which entered into the dark chamber within 30 seconds were punished by the scrambled foot shock as a training. On the next day, all animals were administered again the same amount of test derivative or saline. These animals were subjected to the second retention trial two days after the second injection.
Retention trials, punishments and additional administrations were repeated as mentioned above four times in all.

[2] = system: rats injected with kainic acid at basal forebrain / sham-operated rats; assay: Retention of passive avoidance learning: prevention of retention deficits; assay type: in vivo, rat (male Sprague-Dawley); conditions: Table 8, i.p. 5 mg/kg on days 1, 4, 7
Method: as §1, §2, §3
The preventive effects on deficits in retention were estimated by using 60 rats. Thirty rats were injected with kainic acid and other 30 rats were sham-operated with PBS.
Each groups of animals were equally divided into three groups which were received intraperitoneally 5 mg/kg of the derivative (A) (R=2H, R1 =H, R2 =n-propyl, that is, 4-n-propylcatechol), derivative A (R=--CO--, R1 =H, R2 =n-propyl) and saline respectively as a saline solution on one, four and seven days after the operation.
Table 8 illustrates the results obtained by conducting the acquisition trial 10 days after the operation and the retention test after 24 hours.

CCCc1ccc(O)c(O)c1 [R = Two H, R1 = H, R2 = n-Propyl, 4-n-propylcatechol]
Mean latency, 1st retention trial [1]: 47 ± 16 | Mean latency, 4th retention trial ([1]; **P < 0.01): 272 ± 14 | Mean latency, 2nd retention trial ([1]; *P < 0.05): 147 ± 29 | Mean latency, 3rd retention trial ([1]; *P < 0.05): 201 ± 23 | Animals with more than 150 sec of latency ([2]; rats operated with kainic acid): 3 in 10 animals | Mean latency ([2]; rats operated with kainic acid, *P < 0.01 vs control): 114 ± 44 s | Animals with more than 150 sec of latency ([2]; sham-operated rats): 10 in 10 animals | Mean latency ([2]; sham-operated rats): 286 ± 9 s
